The values below come from patent US8722674B2, “1,3,5-triazine-2,4,6-triamine compound or pharmaceutical acceptable salt thereof, and pharmaceutical composition comprising the same” (Hanall Biopharma Co., Ltd., priority 2007, dated 2014).

Structures can show the parent of a compound that is named as a salt.

The test system of series [1] is HepG2 cells. Briefly: Measurement of cholesterol synthesis ability (Amplex red fluorescence). Format: cell-based. To be noted: HepG2 cells, 24 h treatment, lower is better. From the text:
(§1) Metformin that is widely used in type 2 diabetic patients inhibits the formation of glucose, the synthesis of cholesterol and triglyceride in liver cells and promote the absorption of glucose from blood vessels in the muscle cells. […] In the case of the ability to form cholesterol, triglyceride and glucose, the lower the numerical value, the better the effect. Numerical values for a control group become reference values.
(§2) As a hepatic cell model, HepG2 cells were used to measure cholesterol synthesis inhibitory ability, which is the important function of AMPK. The hepatic cell model HepG2 cells were cultured in 1% serum-containing media for 24 hours, and then treated with each of the compounds for 24 hours. Then, the cells were disrupted with lysis buffer (0.1 M potassium phosphate, pH 7.4, 0.05 M NaCl, 5 mM cholic acid, 0.1% Triton X-100). To the disrupted cells, the same volume of a reaction solution (2 U/ml cholesterol oxidizing agent, 2 U/ml peroxidase, 0.2 U/ml cholesterol esterase, and 300 μM Amplex red as a fluorescent factor) was added and allowed to react at 37° C. for 30 minutes. After completion of the reaction, the cells were measured with a fluorometer at a wavelength of 560/590 nm (ex/em), thus quantifying the amount of […] formed in the cells. A lower measurement value means an increased lipid production inhibitory ability.

Series [2] concerns HepG2 cells. Kind of series: Measurement of triglyceride (Amplex red fluorescence). Format: cell-based. To be noted: 24 h treatment, lower is better. How it is done:
as §1
as §2, with “model,” for “model, HepG2 cells were used to measure cholesterol synthesis inhibitory ability, which is the important function of AMPK. The hepatic cell model”, “(0.1M” for “(0.1 M”, “(0.76” for “(2”, “glycerol kinase, […] peroxidase, 22.2 U/ml glycerol” for “cholesterol”, “agent,” for “agent, 2 U/ml peroxidase, 0.2 U/ml cholesterol esterase,”

Series [3] has as its system HepG2 cells. Briefly: Measurement of gluconeogenesis (14C-lactate). It counts as cell-based. To be noted: 24 h treatment, lower is better. How it is done: as §1
As a hepatic cell model, HepG2 cells were cultured in 10% serum-containing high glucose media, and then treated with each of the compounds for 24 hours. Then, the cells were treated with 0.5 uCi 14C-lactate and 10 mM L-lactate, and cultured for 4 hours. After cultivation, the media of the cells were removed, and the cells were washed with PBS, treated with 0.1N NaOH and left to stand at room temperature for 1 hour. Then, the cells were neutralized with 1N HCl, and the amount of glucose formed in the cells was measured with a liquid scintillation counter. […] A lower measurement value means a stronger blood glucose lowering activity.

The next series relates to C2C12 cells. Briefly: Measurement of glucose absorption (3H-deoxy-glucose). Format: cell-based.
Description: as §1
As a muscle cell model, C2C12 cells were induced to differentiate into muscle cells in 2% bovine fetal serum for 6 days. The C2C12 cells which differentiated into muscle cells were treated with each of the compounds in serum-free low glucose media, and then cultured with 1 μM of insulin for 24 hours. After cultivation, the cells were treated with 1 μCi 3H-deoxy-glucose and 10 μM deoxy-glucose at 37° C. for 15 minutes. After treatment, the media were removed, and the cells were washed twice with PBS. The washed cells were treated with 0.1 N NaOH and neutralized with 1N HCl. The amount of glucose absorbed into the cells was measured with a liquid scintillation counter. The effect of the compounds was determined by selecting a compound showing an absorption effect of at least 200%, dividing the absorption effect by the average percent of the control group, and then multiplying the divided value by […]. A higher measurement value means a stronger ability to reduce insulin resistance.

Where [4] appears, read: Homo sapiens, 100 uM, read-out: cholesterol synthesis ability, % control.
Where [5] appears, read: Homo sapiens, 100 uM, read-out: triglyceride synthesis ability, % control.
Where [6] appears, read: Homo sapiens, 100 uM, read-out: gluconeogenesis (glucose synthesis ability), % control.
The mark [7] stands for this setting: Mus musculus, 100 uM, differentiated C2C12 muscle cells, with 1 μM insulin 24 h, higher is better, read-out: glucose absorption, % control.

For the compound `CCc1ccccc1Nc1nc(N)nc(N(C)C)n1` [Example 36, N2-(2-ethylphenyl)-N4,N4-dimethyl-1,3,5-triazine-2,4,6-triamine], the activity at 100 µM with HepG2 cells [1] (setting [4]) is 51%; in the series on HepG2 cells [2] (setting [5]), 75.1%; with HepG2 cells [3] (setting [6]) it was 42.1%; in the series with C2C12 cells (setting [7]), 100%.
For orientation: melting point means the temperature of the solid-liquid transition. In the case of `CCCCCCc1ccc(Nc2nc(N)nc(N(C)C)n2)cc1` [Example 42, N2-(4-hexylphenyl)-N4,N4-dimethyl-1,3,5-triazine-2,4,6-triamine], the melting point was 132 to 168 °C. The activity at 100 µM with HepG2 cells [1] (setting [4]) amounted to 39%. In the series on HepG2 cells [2] (setting [5]), the activity at 100 µM came to 34.3%.
In the case of `CN(C)c1nc(N)nc(NCc2ccc3c(c2)OCO3)n1` (as salt: HCl) [Example 1, N2-(benzo[d][1,3]dioxol-5-ylmethyl)-N4,N4-dimethyl-1,3,5-triazine-2,4,6-triamine], the melting point was in the range of 193.7 to 219.6 °C.
With `CN(C)C(=N)N=C(N)N` [Metformin, reference compound], the activity at 2000 µM was 83.5% in the series on HepG2 cells [1] (Homo sapiens, 2 mM, read-out: cholesterol synthesis ability, % control); 70.6% in the series with HepG2 cells [2] (Homo sapiens, 2 mM, read-out: triglyceride synthesis ability, % control); 52.7% in the series on HepG2 cells [3] (Homo sapiens, 2 mM, read-out: gluconeogenesis (glucose synthesis ability), % control); 329% with C2C12 cells (Mus musculus, 2 mM, differentiated C2C12 muscle cells, with 1 μM insulin 24 h, higher is better, read-out: glucose absorption, % control).
Turning to `CN(C)c1nc(N)nc(Nc2ccccc2F)n1` [Example 30, N2-(2-fluorophenyl)-N4,N4-dimethyl-1,3,5-triazine-2,4,6-triamine], the activity at 100 µM was 75.7% in the series with HepG2 cells [1] (setting [4]), 81.1% in the series with HepG2 cells [2] (setting [5]), 85.5% with HepG2 cells [3] (setting [6]) and 133% with C2C12 cells (setting [7]).
Turning to `CN(C)c1nc(N)nc(NCc2ccc3c(c2)OCO3)n1` [Example 1, N2-(benzo[d][1,3]dioxol-5-ylmethyl)-N4,N4-dimethyl-1,3,5-triazine-2,4,6-triamine], the activity at 250 µM in the series on HepG2 cells [1] (Homo sapiens, 250 uM, read-out: cholesterol synthesis ability, % control) was determined as 81.1%; in the series on HepG2 cells [2] (Homo sapiens, 250 uM, read-out: triglyceride synthesis ability, % control), 103%; with C2C12 cells (Mus musculus, 250 uM, differentiated C2C12 muscle cells, with 1 μM insulin 24 h, higher is better, read-out: glucose absorption, % control), 133%. Further, the activity at 500 µM in the series with HepG2 cells [3] (Homo sapiens, 500 uM, read-out: gluconeogenesis (glucose synthesis ability), % control) was found to be 105%.
The compound `CN(C)c1nc(N)nc(Nc2ccc(C(C)(C)C)cc2)n1` [Example 22, N2-(4-tert-butylphenyl)-N4,N4-dimethyl-1,3,5-triazine-2,4,6-triamine] had a melting point of 253 to 263 °C. Besides, in the series on HepG2 cells [1] (setting [4]), the activity at 100 µM worked out at 53%. For the same compound, in the series with HepG2 cells [2] (setting [5]), the activity at 100 µM was 34.4%.
For `CN(C)c1nc(N)nc(NCc2cccnc2)n1` [Example 4, N2,N2-dimethyl-N4-(2-pyridine-3-ylmethyl)-1,3,5-triazine-2,4,6-triamine], the “cholesterol synthesis ability, % control” value with HepG2 cells [1] (250 uM) is listed as 93.66%. Also, the “triglyceride synthesis ability, % control” value in the series on HepG2 cells [2] (250 uM) was found to be 99.48%. Moreover, the “gluconeogenesis (glucose synthesis ability), % control” value with HepG2 cells [3] (500 uM) is listed as 92.14%. Also, the “glucose absorption, % control” value in the series with C2C12 cells (250 uM, differentiated C2C12 muscle cells, with 1 μM insulin 24 h, higher is better) is 143.92%.
On to `CC(C)c1ccc(Nc2nc(N)nc(N(C)C)n2)cc1` [Example 28, N2-(4-isopropylphenyl)-N4,N4-dimethyl-1,3,5-triazine-2,4,6-triamine], for which the activity at 100 µM is 65.9% with HepG2 cells [1] (setting [4]), 43.2% in the series on HepG2 cells [2] (setting [5]), 45.4% with HepG2 cells [3] (setting [6]) and 173% in the series with C2C12 cells (setting [7]).
For the compound `CN(C)c1nc(N)nc(Nc2cccc(Br)c2)n1` [Example 2, N2-(3-bromophenyl)-N4,N4-dimethyl-1,3,5-trizaine-2,4,6-triamine], the “cholesterol synthesis ability, % control” value in the series on HepG2 cells [1] (100 uM) is 23.15%. For the same compound, the “triglyceride synthesis ability, % control” value in the series with HepG2 cells [2] (100 uM) was 19.11%. The “gluconeogenesis (glucose synthesis ability), % control” value in the series on HepG2 cells [3] (100 uM) came to 51.89%. In the series on C2C12 cells (100 uM, differentiated C2C12 muscle cells, with 1 μM insulin 24 h, higher is better), the “glucose absorption, % control” value is 35.23%.
On to `CN(C)c1nc(N)nc(N2CCCC2)n1` [Example 35, N2,N2-dimethyl-6-(pyrrolidin-1-yl)-1,3,5-triazine-2,4-diamine], for which the activity at 100 µM with HepG2 cells [1] (setting [4]) was 69%; in the series with HepG2 cells [2] (setting [5]), 99.9%; with HepG2 cells [3] (setting [6]) it was 91.4%; with C2C12 cells (setting [7]) it was 285%. In addition, the “effect of reducing insulin resistance, times better than the control group” value in the series on C2C12 cells (absorption effect divided by average percent of control group (metformin 2 mM), multiplied by 20) is reported as “about 17 times”.
As for `CN(C)c1nc(N)nc(Nc2ccc(Cl)c(Cl)c2)n1` [Example 17, N2-(3,4-dichlorophenyl)-N4,N4-dimethyl-1,3,5-triazine-2,4,6-triamine], the activity at 100 µM in the series with HepG2 cells [1] (setting [4]) is 11.3%; in the series on HepG2 cells [2] (setting [5]), -12.1%; in the series with HepG2 cells [3] (setting [6]) it was 15.2%; in the series on C2C12 cells (setting [7]) it was 7.29%.
